Source: patent US10927105B1 (Lundbeck La Jolla Research Center, Inc., priority 2017, dated 2021)

Key:
MAGL [1] = molecular target: T1, MAGL (Mus musculus (Mouse), UniProt O35678); assay: In vitro competitive activity-based protein profiling (mouse brain membrane fraction, FP-Rh probe), MAGL band
Description: (§1) Biological Evaluation In Vitro Competitive Activity-Based Protein Profiling.
(§2) Proteomes (mouse brain membrane fraction for mouse assays; human prefrontal cortex membrane fractions for human assays) (50 mL, 1.0 mg/mL total protein concentration) were preincubated with varying concentrations of inhibitors at 37° C. After 30 min, FP-Rh (1.0 mL, 50 mM in DMSO) was added and the mixture was incubated for another 30 min at 37° C. Reactions were quenched with SDS loading buffer (15 μL-4×) and run on SDS-PAGE.

FAAH [2] = molecular target: T2, FAAH (Mus musculus (Mouse), UniProt O08914); assay: In vitro competitive activity-based protein profiling (mouse brain membrane fraction, FP-Rh probe), FAAH band
Description: as §1, §2

MAGL [3] = molecular target: MAGL (Homo sapiens (Human), UniProt Q99685); assay: In vitro competitive activity-based protein profiling (human prefrontal cortex membrane fractions, FP-Rh probe), MAGL band; conditions: human prefrontal cortex membrane fractions; for IC50: read-out: MAGL IC50 (μM) (human)
FAAH [4] = molecular target: FAAH (Homo sapiens (Human), UniProt O00519); assay: In vitro competitive activity-based protein profiling (human prefrontal cortex membrane fractions, FP-Rh probe), FAAH band; conditions: human prefrontal cortex membrane fractions; for IC50: read-out: FAAH IC50 (μM) (human)
Description: as §1, §2

FAAH [5] = molecular target: T2, FAAH; assay: Mouse brain proteomes from inhibitor treated mice (oral gavage, sacrificed 4 h after administration, brain proteomes analyzed), FAAH; format: in vivo; conditions: 5 mg/kg oral gavage, read-out: FAAH % inh. 5 mg/kg (mouse)
MAGL [6] = molecular target: T1, MAGL; assay: Mouse brain proteomes from inhibitor treated mice (oral gavage, sacrificed 4 h after administration, brain proteomes analyzed); format: in vivo; conditions: 5 mg/kg oral gavage
FAAH [7] = molecular target: T2, FAAH; assay: Mouse brain proteomes from inhibitor treated mice (oral gavage, sacrificed 4 h after administration), FAAH; format: in vivo; conditions: 5 mg/kg oral gavage

Chain of MAGL (Homo sapiens (Human), UniProt Q99685) (Q99685 whole entry): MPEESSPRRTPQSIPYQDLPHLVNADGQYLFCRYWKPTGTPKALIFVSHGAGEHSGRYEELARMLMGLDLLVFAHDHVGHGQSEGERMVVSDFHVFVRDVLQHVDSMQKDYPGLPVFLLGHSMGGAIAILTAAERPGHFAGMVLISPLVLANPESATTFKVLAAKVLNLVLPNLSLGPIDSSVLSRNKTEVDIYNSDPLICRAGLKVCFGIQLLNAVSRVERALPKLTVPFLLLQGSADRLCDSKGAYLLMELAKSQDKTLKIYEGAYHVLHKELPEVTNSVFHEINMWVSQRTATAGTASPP
Chain of FAAH (Homo sapiens (Human), UniProt O00519) (O00519 whole entry): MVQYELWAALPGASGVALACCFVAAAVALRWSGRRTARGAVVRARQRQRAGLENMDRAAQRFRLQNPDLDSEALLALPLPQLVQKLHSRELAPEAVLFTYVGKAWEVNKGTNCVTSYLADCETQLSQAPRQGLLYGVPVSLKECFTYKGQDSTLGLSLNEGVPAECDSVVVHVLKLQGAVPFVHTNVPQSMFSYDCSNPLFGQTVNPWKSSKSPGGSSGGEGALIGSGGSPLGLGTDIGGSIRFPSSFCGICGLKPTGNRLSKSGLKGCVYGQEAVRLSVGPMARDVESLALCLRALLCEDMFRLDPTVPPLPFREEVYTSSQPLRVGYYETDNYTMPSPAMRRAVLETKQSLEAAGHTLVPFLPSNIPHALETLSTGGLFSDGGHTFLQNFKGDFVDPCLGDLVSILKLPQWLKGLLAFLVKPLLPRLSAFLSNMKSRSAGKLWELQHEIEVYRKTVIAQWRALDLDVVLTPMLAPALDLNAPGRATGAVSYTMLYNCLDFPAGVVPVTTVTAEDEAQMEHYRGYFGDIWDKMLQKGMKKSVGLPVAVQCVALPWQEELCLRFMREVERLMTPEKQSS
T1 sequence (O35678 whole entry): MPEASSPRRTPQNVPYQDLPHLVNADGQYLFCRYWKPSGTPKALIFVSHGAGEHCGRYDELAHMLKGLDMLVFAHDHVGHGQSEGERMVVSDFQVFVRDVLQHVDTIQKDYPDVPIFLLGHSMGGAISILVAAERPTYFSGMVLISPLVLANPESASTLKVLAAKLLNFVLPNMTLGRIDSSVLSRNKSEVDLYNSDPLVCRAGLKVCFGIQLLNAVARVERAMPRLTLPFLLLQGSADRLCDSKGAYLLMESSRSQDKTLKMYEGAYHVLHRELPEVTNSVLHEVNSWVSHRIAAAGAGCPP
T2 sequence (O08914 whole entry): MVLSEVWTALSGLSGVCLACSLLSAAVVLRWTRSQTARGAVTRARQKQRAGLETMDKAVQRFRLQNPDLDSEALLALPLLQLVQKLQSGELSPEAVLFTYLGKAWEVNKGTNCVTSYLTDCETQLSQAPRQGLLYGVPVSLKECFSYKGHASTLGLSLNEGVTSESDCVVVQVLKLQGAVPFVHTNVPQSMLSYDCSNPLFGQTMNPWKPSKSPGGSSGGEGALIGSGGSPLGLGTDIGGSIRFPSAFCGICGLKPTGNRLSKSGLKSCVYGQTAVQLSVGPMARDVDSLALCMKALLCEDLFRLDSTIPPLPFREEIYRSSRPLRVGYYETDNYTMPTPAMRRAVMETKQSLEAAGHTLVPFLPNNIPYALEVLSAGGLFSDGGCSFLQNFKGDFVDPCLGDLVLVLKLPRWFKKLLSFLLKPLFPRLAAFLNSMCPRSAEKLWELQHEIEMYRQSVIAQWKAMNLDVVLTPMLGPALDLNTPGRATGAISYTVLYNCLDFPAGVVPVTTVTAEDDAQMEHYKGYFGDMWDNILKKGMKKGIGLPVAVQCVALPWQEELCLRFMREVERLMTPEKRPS

| SMILES | IC50 (MAGL [3]) [µM] | IC50 (FAAH [4]) [µM] | also measured |
| --- | --- | --- | --- |
| O=C(O)c1ccn(C(=O)N2CCC3(CCN(Cc4cc(F)cc(C(F)(F)F)c4)C3)CC2)n1 [Example 152, 1-(2-(3-fluoro-5-(trifluoromethyl)-benzyl)-2,8-diazaspiro[4.5]-decane-8-carbonyl)-1H-pyrazole-3-carboxylic acid] | – | – | MAGL % inh. 1 μM (mouse) (MAGL [1]): A (% inhibition is greater than or equal to 75%); FAAH % inh. 1 μM (mouse) (FAAH [2]): B (% inhibition is greater than or equal to 50% and less than 75%); MAGL % inh. 1 μM (human) (MAGL [3]): A (% inhibition is greater than or equal to 75%); FAAH % inh. 1 μM (human) (FAAH [4]): D (% inhibition is greater than or equal to 0% and less than 25%) |
| O=C(O)c1ccn(C(=O)N2CCC3(CCN(Cc4cccc(OC(F)(F)F)c4)C3)CC2)n1 [Example 153, 1-(2-(3-(trifluoromethoxy)-benzyl)-2,8-diazaspiro[4.5]-decane-8-carbonyl)-1H-pyrazole-3-carboxylic acid] | – | – | MAGL % inh. 1 μM (mouse) (MAGL [1]): A (% inhibition is greater than or equal to 75%); FAAH % inh. 1 μM (mouse) (FAAH [2]): C (% inhibition is greater than or equal to 25% and less than 50%); MAGL % inh. 1 μM (human) (MAGL [3]): A (% inhibition is greater than or equal to 75%); FAAH % inh. 1 μM (human) (FAAH [4]): D (% inhibition is greater than or equal to 0% and less than 25%) |
| O=C(O)c1ccn(C(=O)N2CCC3(CCCN3Cc3ccc(C(F)(F)F)cc3N3CCCCC3)CC2)n1 [Example 404, 1-(1-(2-(piperidin-1-yl)-4-(trifluoromethyl)-benzyl)-1,8-diazaspiro[4.5]-decane-8-carbonyl)-1H-pyrazole-3-carboxylic acid] | – | – | inhibition at 5 mg/kg (FAAH [5]): 0 to 25% |
| O=C(O)c1nn(C(=O)N2CCC3(CCCN3Cc3cc4ccc(C(F)(F)F)cc4s3)CC2)cc1Cl [Example 139, 4-chloro-1-(1-((6-(trifluoromethyl)-benzo[b]thiophen-2-yl)methyl)-1,8-diazaspiro[4.5]-decane-8-carbonyl)-1H-pyrazole-3-carboxylic acid] | < 0.1 | < 0.1 | – |
| NC(=O)c1ccn(C(=O)N2CC3CN(Cc4ccc(N5CCOCC5)cc4C(F)(F)F)CC3C2)n1 (stereo not drawn) [Example 17, 1-(5-(4-Morpholino-2-(trifluoromethyl)benzyl)octahydropyrrolo[3,4-c]pyrrole-2-carbonyl)-1H-pyrazole-3-carboxamide] | < 0.1 | < 0.1 | – |
| O=C(O)c1ccn(C(=O)N2C[C@H]3C[C@H](OCc4ccc(Oc5ccc(Cl)cc5)cc4)C[C@H]3C2)n1 [Example 55, 1-(trans-5-((4-(4-chlorophenoxy)-benzyl)oxy)-octahydrocyclopenta-[c]pyrrole-2-carbonyl)-1H-pyrazole-3-carboxylic acid] | < 0.1 | < 0.1 | – |
| O=C(O)c1ccn(C(=O)N2CCC3(CCCN3Cc3ccc(C(F)(F)F)cc3Cl)CC2)n1 [Example 76, 1-(1-(2-chloro-4-(trifluoromethyl)-benzyl)-1,8-diazaspiro[4.5]-decane-8-carbonyl)-1H-pyrazole-3-carboxylic acid] | – | – | MAGL % inh. 5 mg/kg (mouse) (MAGL [6]): D (% inhibition is greater than or equal to 0% and less than 25%); FAAH % inh. 5 mg/kg (mouse) (FAAH [7]): D (% inhibition is greater than or equal to 0% and less than 25%); MAGL % inh. 1 μM (mouse) (MAGL [1]): A (% inhibition is greater than or equal to 75%); FAAH % inh. 1 μM (mouse) (FAAH [2]): D (% inhibition is greater than or equal to 0% and less than 25%); MAGL % inh. 1 μM (human) (MAGL [3]): A (% inhibition is greater than or equal to 75%); FAAH % inh. 1 μM (human) (FAAH [4]): D (% inhibition is greater than or equal to 0% and less than 25%) |
| O=C(O)c1ccn(C(=O)N2CCC3(CCCN3C(=O)c3ccc(C(F)(F)F)cc3N3CCCC3)CC2)n1 [Example 403, 1-(1-(2-(pyrrolidin-1-yl)-4-(trifluoromethyl)-benzoyl)-1,8-diazaspiro[4.5]-decane-8-carbonyl)-1H-pyrazole-3-carboxylic acid] | – | – | inhibition at 5 mg/kg (FAAH [5]): 0 to 25% |
| NC(=O)c1ccn(C(=O)N2CCC3(CCN(Cc4cc(Cl)ccc4C(F)(F)F)C3)CC2)n1 [Example 99, 1-(2-(5-chloro-2-(trifluoromethyl)-benzyl)-2,8-diazaspiro[4.5]-decane-8-carbonyl)-1H-pyrazole-3-carboxamide] | < 0.1 | < 0.1 | – |

Now from value to compound, other results behind:

| IC50 (MAGL [3]) [µM] | IC50 (FAAH [4]) [µM] | SMILES | also measured |
| --- | --- | --- | --- |
| < 0.1 | < 0.1 | NC(=O)c1ccn(C(=O)N2CCC3(CCN(Cc4cc(Cl)cc(C(F)(F)F)c4)C3)CC2)n1 [Example 196, 1-(2-(3-chloro-5-(trifluoromethyl)-benzyl)-2,8-diazaspiro[4.5]-decane-8-carbonyl)-1H-pyrazole-3-carboxamide] | – |
| < 0.1 | < 0.1 | CN(Cc1ccc(C(F)(F)F)cc1)[C@@H]1C[C@@H]2CN(C(=O)n3ccc(C(N)=O)n3)C[C@@H]2C1 [Example 205, 1-(cis-5-(methyl(4-(trifluoromethyl)-benzyl)amino)-octahydrocyclopenta-[c]pyrrole-2-carbonyl)-1H-pyrazole-3-carboxamide] | – |
| < 0.1 | < 0.1 | NC(=O)c1ccn(C(=O)N2CC3CN(Cc4cccc(C(F)(F)F)c4)CC3C2)n1 (stereo not drawn) [Example 208, 1-(5-(3-(trifluoromethyl)-benzyl)-octahydropyrrolo-[3,4-c]pyrrole-2-carbonyl)-1H-pyrazole-3-carboxamide] | – |
| < 0.1 | < 0.1 | C#Cc1ccc(CN2CCN(C(=O)n3ccc(C(N)=O)n3)CC2)cc1 [Example 144, 1-(4-(4-ethynylbenzyl)-piperazine-1-carbonyl)-1H-pyrazole-3-carboxamide] | – |
| < 0.1 | < 0.1 | O=C(O)c1ccn(C(=O)N2CCN(Cc3cc(F)cc(Oc4ccc(Cl)cc4)c3)CC2)n1 [Example 161, 1-(4-(3-(4-chlorophenoxy)-5-fluorobenzyl)-piperazine-1-carbonyl)-1H-pyrazole-3-carboxylic acid] | – |
| < 0.1 | < 0.1 | O=C(O)c1ccn(C(=O)N2C[C@H]3C[C@H](OCc4cccc(Oc5ccc(Cl)cc5)c4)C[C@H]3C2)n1 [Example 158, 1-(trans-5-((3-(4-chlorophenoxy)-benzyl)oxy)-octahydrocyclopenta-[c]pyrrole-2-carbonyl)-1H-pyrazole-3-carboxylic acid] | – |
| < 0.1 | < 0.1 | O=C(O)c1ccn(C(=O)N2C[C@H]3C[C@H](Oc4cccc(-c5ccccc5)c4)C[C@H]3C2)n1 [Example 125, 1-(trans-5-([1,1′-biphenyl]-3-yloxy)-octahydrocyclopenta-[c]pyrrole-2-carbonyl)-1H-pyrazole-3-carboxylic acid] | – |
| < 0.1 | < 0.1 | CN(Cc1ccccc1Cl)[C@@H]1C[C@@H]2CN(C(=O)n3ccc(C(N)=O)n3)C[C@@H]2C1 [Example 206, 1-(cis-5-((2-chlorobenzyl)-(methyl)amino)-octahydrocyclopenta-[c]pyrrole-2-carbonyl)-1H-pyrazole-3-carboxamide] | – |
| < 0.1 | < 0.1 | NC(=O)c1ccn(C(=O)N2CCN(Cc3ccc(C(F)(F)F)cc3N3CCCC3)CC2)n1 [Example 173, 1-(4-(2-(pyrrolidin-1-yl)-4-(trifluoromethyl)-benzyl)piperazine-1-carbonyl)-1H-pyrazole-3-carboxamide] | – |
